Patent publication US9676806B2, “Metal-based thiophene photodynamic compounds and their use” (priority 2012, dated 2017)

Test system: pUC19 plasmid DNA
Test: PDC-mediated pUC19 photocleavage, gel electrophoretic analysis
[1] = Air, +hv, 420-nm irradiation 1 hr, FIG. 15
[2] = Air, +hv, visible irradiation 1 hr, 21 W/m^2, FIG. 16
[3] = Ar, +hv, 420-nm irradiation 1 hr, FIG. 15
[4] = Ar, +hv, visible irradiation 1 hr, 21 W/m^2, FIG. 16

Method: FIG. 16: Gel electrophoretic analysis (1% agarose gel precast with 0.75 μg mL^−1 ethidium bromide, 1×TAE, 8 V cm^−1, 30 min.) of PDC-mediated pUC19 photocleavage in air-saturated and deoxygenated solution: visible irradiation of pUC19 (20 μM NP in 10 mM Tris·100 mM NaCl, pH 7.4) for 1 hr. with cool white fluorescent tubes, 21 W/m^2. Lanes 1 (−PDC, −hv), 2 (500 μM [Ru(bpy)3]^2+, −hv), and 5 (2 μM 10a, −hv) are controls. Lanes 3 (500 μM [Ru(bpy)3]^2+, +hv) and 6 (2 μM 10a, +hv) contain samples that were irradiated in air; lanes 4 and 7 are the corresponding samples irradiated in argon.
DNA photocleavage experiments were performed according to a general plasmid DNA assay with 20 μL total sample volumes in 0.5 or 1.5 mL microfuge tubes containing transformed pUC19 plasmid (200 ng, >95% Form I) in 10 mM MOPS buffer and 100 mM NaCl, pH 7.4. DNA (1-5 μL) was delivered to the assay tubes as a solution in 10 mM Tris-Cl (pH 8.5) and diluted with MOPS (pH 7.5, final concentration 10 mM) and NaCl (final concentration 100 mM). […] Complexes were dissolved initially in acetonitrile (2 μM stock solutions), and all subsequent dilutions were made with ddH2O where final assay tubes contained <1% acetonitrile. For concentration-based assays, samples (no pre-incubation period) were irradiated in air for 30 min with 420 nm light inside a photoreactor (Luzchem LZC-4X). Where irradiation of deoxygenated samples was required, argon was bubbled through the solutions for 15 min prior to irradiation under a positive pressure of argon. All samples were quenched by the addition of gel loading buffer (4 μL), loaded onto 1% agarose gels containing ethidium bromide (0.75 μg mL^−1), and electrophoresed for 30 min at 8-12 V cm^−1 in 1×TAE (40 mM Trisacetate, 1 mM EDTA, pH 8.2). The bands were visualized with UV-transillumination (UVP transilluminator) and quantified using the Gel Doc-It Imaging system (UVP) or GNU Image Manipulation Program (GIMP).

[Ru+2].c1ccc(-c2ccccn2)nc1.c1ccc(-c2ccccn2)nc1.c1ccc(-c2ccccn2)nc1 [[Ru(bpy)^3]^2+]
Form I [1]: 33%
Form II [1]: 67%
Form I [2]: 37%
Form II [2]: 63%
Form II (Air, dark, 420-nm experiment FIG. 15): 29%
Form I (Air, dark, 420-nm experiment FIG. 15, 300 μM [Ru(bpy)3]2+, 2 μM 10a, 4 μM 10b, 8 μM 14a): 71%
Form II (Air, dark, visible experiment FIG. 16): 28%
Form I (Air, dark, visible experiment FIG. 16, 500 μM [Ru(bpy)3]2+, 2 μM 10a): 72%
Form I [3]: 71%
Form II [3]: 29%
Form I [4]: 57%
Form II [4]: 43%
